Data: article PMC8365604 (Journal of Medicinal Chemistry, 2021)
Converted amounts (≈) assume the structure as drawn. Where a name gives a salt, the structure may show the parent alone.

Assay: physchem

solubility [µg/mL]	Structure (SMILES)
60 (≈ 191 µM)	O=C(O)c1ccc2c3c1cccc3c(=O)n1c3ccccc3nc21 [STO-609, 7-oxo-7H-benzimidazo[2,1-a]benz[de]isoquinoline-3-carboxylic acid, reference compound]
10.6 (≈ 39.5 µM)	O=C(O)c1ccc(-c2ccncn2)cc1C1CCCC1 [compound 56, 2-Cyclopentyl-4-(pyrimidin-4-yl)benzoic Acid]
19.4	O=C(O)c1ccc(-c2ccnc(Nc3ccccc3)n2)cc1C1CCCC1 [compound 62, 2-Cyclopentyl-4-(2-(phenylamino)pyrimidin-4-yl)benzoic Acid Hydrochloride]
